How the values were obtained:
[1] = Crystal; for vapor or sublimation pressure: Transpiration method; for Normal melting temperature: DTA
[2] = Molar enthalpy of transition or fusion; conditions: Crystal; DSC

N#Cc1ccc(NS(=O)(=O)c2ccc(N)cc2)cc1 [4-amino-N-(4-cyanophenyl)benzenesulfonamide]
[1]
Conditions	vapor or sublimation pressure [kPa]
420.15 K	6.74e-06
420.95 K	7.23e-06
421.35 K	7.91e-06
424.75 K	1.13e-05
426.55 K	1.36e-05
428.35 K	1.66e-05
429.65 K	1.94e-05
431.35 K	2.11e-05
431.75 K	2.28e-05
432.35 K	2.33e-05
433.05 K	2.63e-05
434.75 K	3.17e-05
435.75 K	3.58e-05
437.15 K	4.24e-05
437.55 K	4.37e-05

Conditions	Molar enthalpy of transition or fusion [kJ/mol]	Normal melting temperature [°C]
[1]	–	178.4
[2]	30.9	–

Nc1ccc(S(=O)(=O)Nc2ccc([N+](=O)[O-])cc2)cc1 [4-amino-N-(4-nitrophenyl)benzenesulfonamide]
[1]
Conditions	vapor or sublimation pressure [kPa]
405.55 K	1.5e-06
409.45 K	2.18e-06
412.85 K	2.3e-06
415.15 K	3.41e-06
417.25 K	4.01e-06
418.75 K	4.34e-06
420.05 K	5.46e-06
421.55 K	5.63e-06
423.25 K	6.16e-06
424.65 K	7.3e-06
426.25 K	8.92e-06
428.75 K	1.05e-05
431.35 K	1.28e-05
432.05 K	1.41e-05
435.15 K	1.81e-05
438.25 K	2.28e-05

Conditions	Molar enthalpy of transition or fusion [kJ/mol]	Normal melting temperature [°C]
[1]	–	165.8
[2]	27.9	–

O=[N+]([O-])c1ccc(NS(=O)(=O)c2ccccc2)cc1 [N-(4-nitrophenyl)benzenesulfonamide]
[1]
Conditions	vapor or sublimation pressure [kPa]
380.15 K	9.47e-06
384.15 K	1.55e-05
385.15 K	1.72e-05
387.15 K	2.09e-05
390.15 K	2.84e-05
391.15 K	3.17e-05
392.15 K	3.47e-05
393.15 K	3.88e-05
394.15 K	4.04e-05
395.15 K	4.64e-05
396.65 K	5.13e-05
401.15 K	8.37e-05
401.65 K	8.63e-05

Conditions	Molar enthalpy of transition or fusion [kJ/mol]	Normal melting temperature [°C]
[1]	–	138.2
[2]	28.7	–
